Measurements from ChEMBL document CHEMBL1201862, “PubChem BioAssay data set” (2004).
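The compound was tested at five concentrations on cells cultured in 96-well plates, with a 48-hour exposure period. Abbreviation: GI50, concentration required for 50% inhibition of growth.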 Active and inactive are the calls of the source. Cut-off read from the data, not from the text of the source: active = GI50 up to about 1.1 µM and inactive = higher.

Key:
Experiment in all cases: DTP human tumour cell line panel, 48 h
DMS-273 = system: DMS-273
KM-20L2 = system: KM-20L2
M19-MEL = system: M19-MEL
DLD-1 = system: DLD-1
DMS-114 = system: DMS-114
XF498 = system: XF498
SNB-78 = system: SNB-78
RXF 631 = system: RXF 631
HOP-18 = system: HOP-18

Measured: GI50

O=C1CCC2(CC1)SCCCS2
inactive: DMS-273 > 100 µM | KM-20L2 > 100 µM | M19-MEL > 100 µM | DLD-1 > 100 µM | DMS-114 > 100 µM | XF498 > 100 µM

O=C1N[C@H](Cc2c[nH]cn2)C(=O)N2CCC[C@@H]12
inactive: SNB-78 > 100 µM | DMS-273 > 100 µM | KM-20L2 > 100 µM | M19-MEL > 100 µM | DLD-1 > 100 µM | DMS-114 > 100 µM | XF498 > 100 µM

C[N+](C)(C)CC(=O)N/N=C(/Cc1nc2ccc([N+](=O)[O-])cc2nc1O)C(=O)Nc1cc(C(F)(F)F)ccc1Cl
inactive: RXF 631 > 100 µM | KM-20L2 > 100 µM | M19-MEL > 100 µM | DLD-1 > 100 µM | DMS-114 75 µM

O=c1c(-c2cccc3ccccc23)c(-c2cccc3ccccc23)c1=O
inactive: SNB-78 1.95 µM | DMS-273 1.71 µM | M19-MEL 3.07 µM | DLD-1 3.28 µM | HOP-18 39.8 µM | DMS-114 2.1 µM | XF498 2.27 µM
active: KM-20L2 0.379 µM

CC1=C(C(=O)Nc2cc(=O)n(C)c(=O)n2C)C(c2cccc([N+](=O)[O-])c2)C(C(=O)Nc2cc(=O)n(C)c(=O)n2C)=C(C)N1
inactive: SNB-78 > 100 µM | KM-20L2 > 100 µM | M19-MEL > 100 µM | DLD-1 > 100 µM | DMS-114 80.5 µM

Cc1cc(O)c2c3c1C(=O)Oc1c(CO)c(O)c(C(=O)O)c(c1O3)C=NN=Cc1c3c(c(CO)c(O)c1C(=O)O)OC(=O)c1c(C)cc(O)c(c1O3)C=NN=C2
inactive: SNB-78 > 100 µM | KM-20L2 > 100 µM | M19-MEL > 100 µM | DLD-1 > 100 µM | HOP-18 > 100 µM | DMS-114 51.5 µM | XF498 > 100 µM

C=C1C(O)C2(O)OCC34C(CC5C(C)=CC(=O)C(O)C5(C)C23)OC(=O)C(OC(=O)C/C=C(\C)CCCCC)C14 (centres undefined)
active: SNB-78 0.0145 µM | KM-20L2 0.0149 µM | M19-MEL 0.0136 µM | DLD-1 0.0146 µM | HOP-18 0.0343 µM | DMS-114 0.0125 µM | XF498 0.0153 µM

COC(=O)CC(NC(=O)OCc1ccccc1)C(C(=O)OCc1ccccc1)C1(C)OCCO1 (centres undefined)
inactive: RXF 631 34.9 µM | DMS-273 39.5 µM | KM-20L2 45.5 µM | M19-MEL 30.2 µM | DLD-1 36.1 µM | DMS-114 23.6 µM | XF498 15.8 µM

Cc1cc(Cl)cc2c1NC(=O)C2(O)CC(=O)c1ccc(Br)cc1 (centres undefined)
inactive: RXF 631 > 71.3 µM | DMS-273 47.8 µM | KM-20L2 > 91.4 µM | M19-MEL 22.5 µM | DLD-1 50.8 µM | DMS-114 34.8 µM | XF498 30.2 µM

N#Cc1c(-c2ccc(Cl)c(Cl)c2)c(-c2ccc(Cl)c(Cl)c2)nn(CC(=O)O)c1=O
inactive: RXF 631 64.9 µM | SNB-78 > 100 µM | DMS-273 44.7 µM | KM-20L2 24.2 µM | M19-MEL > 100 µM | DLD-1 63.5 µM | HOP-18 64.3 µM | XF498 27.9 µM

O/N=C1/C(=C/c2ccc(Cl)c(Cl)c2)CCCC1C(NO)c1ccc(Cl)c(Cl)c1 (centres undefined)
inactive: SNB-78 18.7 µM | DMS-273 18.8 µM | KM-20L2 17.9 µM | M19-MEL 18.2 µM | DLD-1 16.9 µM | HOP-18 16.3 µM | DMS-114 17.9 µM | XF498 16.3 µM

COC(=O)NC1C(C)OC(OC2C/C=C(/C)C3C=CC4C(OC5CC(OC6CC(O)C(OC7CC(O)C(OC)C(C)O7)C(C)O6)C(O)C(C)O5)C(C)CC(C)C4C3(C)C(=O)C3=C(O)C4(CC(C)C(CO)=CC4/C=C\2C)OC3=O)CC1(C)[N+](=O)[O-] (centres undefined)
inactive: RXF 631 21 µM | SNB-78 5.47 µM | DMS-273 11.4 µM | KM-20L2 17.1 µM | M19-MEL 4.43 µM | DLD-1 12.7 µM | HOP-18 15.1 µM | DMS-114 2.5 µM | XF498 10.6 µM

Cc1c(C(=O)CC(=O)C(=O)Nc2ccc(Cl)c(Cl)c2)[n+]([O-])c2ccccc2[n+]1[O-]
inactive: RXF 631 22.5 µM | SNB-78 48.9 µM | DMS-273 26 µM | KM-20L2 52.5 µM | M19-MEL 15.7 µM | DMS-114 16.9 µM

Nc1nc(N)c2cc(CNc3ccc(C(=O)NC(CC(=O)O)C(=O)O)c(Cl)c3)ccc2n1 (centres undefined)
inactive: SNB-78 56 µM | HOP-18 > 100 µM
active: DMS-273 0.0552 µM | KM-20L2 0.117 µM | M19-MEL 0.596 µM | DLD-1 0.038 µM | DMS-114 < 0.01 µM

N#C/C(=C\c1c(O)cc(O)cc1O)C(N)=O
inactive: RXF 631 > 100 µM | SNB-78 > 100 µM | DMS-273 > 100 µM | KM-20L2 > 100 µM | DLD-1 > 100 µM | DMS-114 > 100 µM | XF498 > 100 µM
